# In patent US12440571B2, “Immune agonists” (SHENZHEN UNIVERSITY, priority 2020, dated 2025):
# Legend:
# Type in all cases: cell-based
# TLR7 = target: T1, TLR7 (Homo sapiens, UniProt Q9NYK1); test: Detection of TLR7 activation (HEK-Blue Detection), SEAP reporter; conditions: HEK-Blue hTLR7 cells, 6-16 hrs, absorbance 650 nm; read-out: TLR7(EC50/μM)
# T1 construct: host or cells: HEK-Blue hTLR7 cells (HEK293-derived SEAP reporter line)
# T1 sequence (Q9NYK1 27-1049): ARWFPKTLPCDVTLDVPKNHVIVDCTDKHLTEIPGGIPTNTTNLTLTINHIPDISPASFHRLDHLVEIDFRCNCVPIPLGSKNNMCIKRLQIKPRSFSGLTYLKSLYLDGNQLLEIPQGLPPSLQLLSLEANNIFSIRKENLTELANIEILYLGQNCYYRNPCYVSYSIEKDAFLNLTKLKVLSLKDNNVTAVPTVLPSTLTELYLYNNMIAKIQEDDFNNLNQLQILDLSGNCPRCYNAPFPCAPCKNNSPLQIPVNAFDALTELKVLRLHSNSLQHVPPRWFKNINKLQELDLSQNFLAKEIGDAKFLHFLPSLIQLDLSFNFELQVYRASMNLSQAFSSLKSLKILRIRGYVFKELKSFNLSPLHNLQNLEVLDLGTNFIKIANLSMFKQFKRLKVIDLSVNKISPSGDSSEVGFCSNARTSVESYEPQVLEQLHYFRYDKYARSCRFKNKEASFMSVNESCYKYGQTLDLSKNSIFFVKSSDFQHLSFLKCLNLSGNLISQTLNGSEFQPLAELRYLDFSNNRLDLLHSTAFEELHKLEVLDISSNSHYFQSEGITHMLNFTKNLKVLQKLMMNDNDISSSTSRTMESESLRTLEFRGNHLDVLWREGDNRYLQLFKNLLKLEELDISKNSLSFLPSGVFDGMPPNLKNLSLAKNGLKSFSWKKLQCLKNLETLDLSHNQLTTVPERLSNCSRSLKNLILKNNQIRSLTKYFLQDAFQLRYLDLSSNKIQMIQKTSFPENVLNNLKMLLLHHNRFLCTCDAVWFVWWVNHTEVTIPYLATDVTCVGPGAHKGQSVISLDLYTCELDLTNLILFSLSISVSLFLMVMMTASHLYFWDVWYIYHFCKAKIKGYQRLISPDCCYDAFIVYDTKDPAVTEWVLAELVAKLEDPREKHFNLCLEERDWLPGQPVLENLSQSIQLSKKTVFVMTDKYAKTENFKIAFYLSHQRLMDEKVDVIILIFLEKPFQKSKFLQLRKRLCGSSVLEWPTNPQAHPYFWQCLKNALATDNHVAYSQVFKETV
# Experimental: HEK-Blue™hTLR7 cells (purchased from InvivoGen) in a logarithmic growth phase were taken, with a growth medium (Gibco, C11995500BT, Invivo Gen, ant-nr) discarded. The cells were gently rinsed twice by an appropriate amount of 37° C. PBS (Hyclone, SH30256.01), a rinsed PBS was discarded. Thereafter, the cells were added with 2-5 mL of 37° C. PBS, incubated for 1 to 2 minutes, and then scraped by a cell scraper and gently pipetted to be dispersed into a single cell suspension. A hemocytometer was adopted to count the cells and a cell concentration was calculated. After that, a HEK-Blue™ Detection solution (purchased from Invivo Gen) was adopted to adjust the cell concentration of the cell suspension to 2.5×10^4/180 μL per well for cell plating on a 96-well cell culture plate. The HEK-Blue™hTLR7 cells were stimulated according to the designed series of GY compound or drug concentrations (0.01 μM, 0.1 μM, 1 μM, 5 μM, 15 μM, and 30 μM), with 3 replicate wells for each concentration, and were incubated at 37° C., 5% carbon dioxide for 6-16 hrs. After the incubation, the absorbance value was read at 650 nm with a full-wavelength microplate reader (BioTek-Epoch), as listed in Table 2.
# Relative induction=(average OD value of experimental group−average OD value of negative control group)/average OD value of negative control group.
# Specific details for the above method may be referred to https: • //www.invivogen.com/hek-blue-htlr7; https://www.invivogen.com/sites/default/files/invivogen/products/files/hek_blue_htlr7_tds.pdf.
# [1] = test system: human leukemia K562 cells; test: CCK8 growth inhibition, K562; conditions: CCK8 method, read-out: IC50 of inhibitory activity on tumor cell growth, K562
# [2] = test system: human leukemia HL-60 cells; test: CCK8 growth inhibition, HL60; conditions: Homo sapiens, HL-60, CCK8 method; read-out: IC50 of inhibitory activity on tumor cell growth, HL60
# [3] = test system: murine colon cancer CT-26 cells; test: CCK8 growth inhibition, CT26; conditions: Mus musculus, CCK8 method, read-out: IC50 of inhibitory activity on tumor cell growth, CT26
# A549 = test: CCK8 growth inhibition, A549; conditions: Homo sapiens, CCK8 method, read-out: IC50 of inhibitory activity on tumor cell growth, A549
# [4] = test system: human lymphoma Daudi B cells; test: CCK8 growth inhibition, Daudi B; conditions: Homo sapiens, Daudi, CCK8 method; read-out: IC50 of inhibitory activity on tumor cell growth, Daudi B
# [5] = test system: human lymphoma Raji cells; test: CCK8 growth inhibition, Raji; conditions: Homo sapiens, Raji, CCK8 method; read-out: IC50 of inhibitory activity on tumor cell growth, Raji
# [6] = test system: murine leukemia WEHI-3 cells; test: CCK8 growth inhibition, WEHI-3; conditions: Mus musculus, CCK8 method, read-out: IC50 of inhibitory activity on tumor cell growth, WEHI-3
# HEK293T cells = test: CCK8 growth inhibition, HEK-293T; conditions: Homo sapiens, CCK8 method, read-out: IC50 of inhibitory activity on cell growth, HEK-293T
# LLC = test: CCK8 growth inhibition, LLC; conditions: Lewis lung carcinoma; CCK8 method; read-out: IC50 of inhibitory activity on tumor cell growth, LLC
# [7] = test system: human colon cancer HCT-116 cells; test: CCK8 growth inhibition, HCT-116; conditions: CCK8 method, read-out: IC50 of inhibitory activity on tumor cell growth, HCT-116
# black melanoma B16 cells = test: CCK8 growth inhibition, B16; conditions: Mus musculus, CCK8 method, read-out: IC50 of inhibitory activity on tumor cell growth, B16
SMILES,EC50 (TLR7),IC50 [1],IC50 [2],IC50 [3],IC50 (A549),IC50 [4],IC50 [5],IC50 [6],IC50 (HEK293T cells),IC50 (LLC),IC50 [7],IC50 (black melanoma B16 cells)
CCCCOc1nc(N)c2nc(O)n(Cc3cn(CCOCCOCCOCCNC(=S)N4CCCC(n5nc(-c6ccc(Oc7ccccc7)cc6)c6c(N)ncnc65)C4)nn3)c2n1 (stereo not shown) [GY112],2.65 µM,14.6 µM,9.75 µM,25 µM,16.8 µM,8.73 µM,10.6 µM,5.31 µM,13.8 µM,18.8 µM,15.7 µM,34.1 µM
CCCCOc1nc(N)c2nc(O)n(Cc3cn(CCOCCOCCOCCNC(=S)Nc4cc(Nc5nccc(-c6cn(C)c7ccccc67)n5)c(OC)cc4N(C)CCN(C)C)nn3)c2n1 [GY127],1.06 µM,17.8 µM,19.1 µM,16.9 µM,23.2 µM,,,,26 µM,15.3 µM,20.8 µM,
CCCCOc1nc(N)c2nc(O)n(Cc3cn(CCCCN4CCN(CCCNC(=S)N5CCCC(n6nc(-c7ccc(Oc8ccccc8)cc7)c7c(N)ncnc76)C5)CC4)nn3)c2n1 (stereo not shown) [GY161],3.86 µM,,,6.15 µM,,11.8 µM,16.1 µM,,,,,11.7 µM
